Test results from patent US20040033941A1, “Immunosuppression using piceatannol and a calcineurin inhibitor” (priority 2003, published 2004).
Entries after “also recorded” stand apart in the source; their conditions may differ.

Assays:
[1] = system: hearts from ACI rats transplanted into Lewis rats; experiment: Heterotopic heart transplant, graft survival; assay type: in vivo, rat; conditions: at the specified dosages (30 mg/kg piceatannol, 2 mg/kg cyclosporin A)
Method: (§1) In vivo studies were conducted using piceatannol obtained from Peninsula Lab. […] We examined the ability of piceatannol/calcineurin mixtures to prolong graft survival. Donor organs from ACI rats were transplanted into Lewis rats.
Prior to transplantation, piceatannol (30 mg/kg) was administered intravenously for three days into one selection of Lewis rats via a catheter placed in the right jugular vein.
At day 3, hearts from ACI rats were heterotopically transplanted into the abdomen of the Lewis rats. […] Following transplantation, fascia and muscle were closed with absorbable suture and skin was closed with nylon.
After surgery animals were placed on a warm pad and observed until they awakened. The animals were then placed in cages in a warm environment with wood chip bedding, and provided rodent chow. To relieve pain, Buprenorphine was also given to the animal. Toxicity in animals was monitored by measuring the blood levels of creatinine and ALT, indicators of kidney and liver function, respectively. Drug administration then continued for an additional seven days after the transplant surgery (and was then discontinued).
In the case of heart transplants, rejection was considered complete when no heart beat was palpable with respect to the transplanted organ. This was confirmed by laparotomy and direct inspection.

[2] = system: kidneys from ACI rats transplanted into Lewis rats; assay type: in vivo
Method: as §1
In other experiments, kidneys from ACI rats were transplanted into Lewis rats. Drug administration continued for an additional seven days after transplant at the same levels. From day 8 through day 60 post-transplant administration continued, albeit with piceatannol reduced to 10 mg/kg/day. Thereafter, drug administration ceased.
Animals were anesthetized. The lower abdomen of the donor was shaved and surgically prepared and a long midline incision was made in the abdominal wall. The left kidney and left ureter, aorta, and vena cava were dissected, and suprarenal and gonadal veins ligated and cut. After ligating the suprarenal aorta and vena cava, a hole made in distal aorta and left kidney was flushed in situ with 3 ml of heparinized cold Euro-Collins' solution. The left kidney and left ureter were removed with an aortic cuff and vena cava patched and kept on ice.
After the lower abdomen of the recipient was shaved and surgically prepared, the recipient animal underwent a left nephrectomy via a long midline incision under inhalation anesthesia, and abdominal aoerta and vena cava were prepared for anastomosis. […]

transplanted organ = experiment: In vivo use of piceatannol alone as an immunosuppressive
T and B cell activation = experiment: T and B cell activation; assay type: cell-based; conditions: both in vitro and in vivo
Syk kinase = conditions: J. Oliver et al., J. Biol. Chem. 1994; mast cell/allergy studies; cited from earlier work

## Oc1cc(O)cc(/C=C/c2ccc(O)c(O)c2)c1 [piceatannol, 3,4,3′,5′-tetrahydroxy-trans-stilbene]
[1]
  prolongation of heart graft survival (in words): only minimal prolongation effect
[2]; piceatannol 30 then 10 mg/kg/day IV, CsA 2 mg/kg/day IM, day -3 to +60, rejection = serum creatinine over 2 mg/dl or death
  prolonging kidney allograft survival (in words): not effective
[2]; single-agent groups, data not shown
  histological analysis of transplanted kidneys: signs of acute rejection
Transplanted organ; 75 mg/kg of body weight per day
  tolerability / toxicity of piceatannol alone: not well tolerated; also recorded: some toxicity was noted
Transplanted organ; in vivo use of piceatannol
  transplanted organ survival, piceatannol alone: prolongs transplanted organ survival
T and B cell activation
  T and B cell activation: inhibits
Syk kinase
  inhibition of Syk kinase: very effective inhibitor
